Data: patent US9695155B2, “Herbicidal substituted pyrimidinyloxy benzene compounds” (E. I. DU PONT DE NEMOURS AND COMPANY, priority 2013, dated 2017)

Columns and labels:
giant foxtail = experiment: Test A preemergence; assay type: in vivo, Setaria faberii; settings: for Foxtail, Giant plant response rating (0 to 100 scale) / Plant response rating, Foxtail, Giant: 125 g ai/ha; for Foxtail, Giant plant response rating: 500 g ai/ha
Summary of the method: (§1)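 Greenhouse pot test, loam/sand soil. Formulation: non-phytotoxic solvent mix plus surfactant. Pre: directed spray onto soil after sowing. Post: plants at 1–2 leaf, 2–10 cm. Rated visually vs untreated controls at ~10 d, 0 (no effect) to 100 (complete control).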

morningglory = experiment: Test A preemergence; assay type: in vivo, Ipomoea spp.; settings: for Morningglory plant response rating: 500 g ai/ha
Summary of the method: as §1

pigweed = experiment: Test A preemergence; assay type: in vivo, Amaranthus retroflexus; settings: for Pigweed plant response rating: 500 g ai/ha
Summary of the method: as §1

velvetleaf = experiment: Test A postemergence; assay type: in vivo, Abutilon theophrasti; settings: 0 to 100 scale where 0 is no effect and 100 is complete control; for Velvetleaf plant response rating: 125 g ai/ha; for Plant response rating, Velvetleaf: 500 g ai/ha
Summary of the method: as §1

wheat = experiment: Test A postemergence; assay type: in vivo, Triticum aestivum; settings: 0 to 100 scale where 0 is no effect and 100 is complete control; for Wheat plant response rating: 125 g ai/ha; for Plant response rating, Wheat: 500 g ai/ha
Summary of the method: as §1

barnyardgrass = experiment: Test B flooded paddy test; assay type: in vivo, Echinochloa crus-galli; settings: Flood, 250 g ai/ha; 0 to 100 scale where 0 is no effect and 100 is complete control
Summary of the method: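 Compound added straight to paddy water, with pots kept flooded 3 cm above soil, on plants grown to the 2-leaf stage. Visual scoring 0-100 (100 = complete control) against untreated controls after 13 to 15 greenhouse days.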

wheat, winter = experiment: Test C postemergence; assay type: in vivo, Triticum aestivum; settings: for Wheat plant response rating / Plant response rating, Wheat: scale 0 to 100 (0 no effect, 100 complete control)
Summary of the method: (§2)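 Visual ratings on a 0–100 scale (100 = complete control) were made versus untreated controls after 13–15 greenhouse days. Chemicals in a surfactant-containing non-phytotoxic solvent were applied either preemergence to seeds in loam–sand soil or postemergence to 1- to 4-leaf plants 2–18 cm tall.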

kochia = experiment: Test C postemergence; assay type: in vivo, Kochia scoparia; settings: for Kochia plant response rating / Plant response rating, Kochia: scale 0 to 100 (0 no effect, 100 complete control)
Summary of the method: as §2

wild oat = experiment: Test C postemergence; assay type: in vivo, Avena fatua; settings: for Oat, Wild plant response rating / Plant response rating, Oat, Wild: scale 0 to 100 (0 no effect, 100 complete control)
Summary of the method: as §2

chickweed = experiment: Test C postemergence; assay type: in vivo, Stellaria media; settings: for Chickweed plant response rating / Plant response rating, Chickweed: scale 0 to 100 (0 no effect, 100 complete control)
Summary of the method: as §2

[1] = 0 to 100 scale where 0 is no effect and 100 is complete control
[2] = 16 g ai/ha, postemergence, 0 is no effect, 100 is complete control
[3] = 31 g ai/ha, postemergence, visual rating, 13 to 15 days
[4] = 125 g ai/ha, postemergence, visual rating
[5] = Postemergence, 62 g ai/ha, 13 to 15 days
[6] = 0 to 100 scale, 0 no effect, 100 complete control, approx. 10 days
[7] = 125 g ai/ha, 0 to 100 scale where 0 is no effect and 100 is complete control
[8] = Postemergence, 31 g ai/ha, 13 to 15 days
[9] = 16 g ai/ha, postemergence, visual rating, 13 to 15 days

Compound | Foxtail, Giant plant response rating (giant foxtail; [1]) | Morningglory plant response rating (0 to 100 scale) (morningglory; 125 g ai/ha) | Morningglory plant response rating (morningglory; [1]) | Pigweed plant response rating (0 to 100 scale) (pigweed; 125 g ai/ha) | Pigweed plant response rating (pigweed; [1]) | Velvetleaf plant response rating (velvetleaf) | Plant response rating, Velvetleaf (velvetleaf) | Wheat plant response rating (wheat) | Plant response rating, Wheat (wheat) | Plant response rating, Barnyardgrass (barnyardgrass) | Plant response rating (0 to 100), Wheat (wheat, winter; [2]) | Wheat plant response rating (wheat, winter; [3]) | Plant response rating, Wheat (wheat, winter; [4]) | Plant response rating (0 to 100), Kochia (kochia; [2]) | Kochia plant response rating (kochia; [3]) | Plant response rating, Kochia (kochia; [4]) | Plant response rating (0 to 100), Oat, Wild (wild oat; [2]) | Oat, Wild plant response rating (wild oat; [3]) | Plant response rating, Oat, Wild (wild oat; [4]) | Plant response rating (0 to 100), Chickweed (chickweed; [2]) | also measured
FC(F)c1cnn(-c2c(Br)cccc2Oc2ncc(Cl)cn2)c1 [Compound 232] | 90 | 20 | 90 | 100 | 100 | 80 | 100 | 20 | 50 | 10 | 0 | 0 | 5 | 85 | 85 | 98 | 0 | 0 | 20 | 5 | Foxtail, Giant plant response rating (0 to 100 scale) (giant foxtail): 90; Plant response rating, Wheat (wheat, winter; [5]): 0; Plant response rating, Kochia (kochia; [5]): 90; Plant response rating, Oat, Wild (wild oat; [5]): 5; Chickweed plant response rating (chickweed; [3]): 30; Plant response rating, Chickweed (chickweed; [4]): 60; Plant response rating, Chickweed (chickweed; [5]): 50
FC(F)Oc1cnn(-c2ccccc2Oc2ncc(Cl)cn2)c1 [Compound 98] | – | – | – | – | – | – | 100 | – | 60 | 35 | – | – | – | – | – | – | – | – | – | – | Plant response rating, Foxtail, Giant (giant foxtail; [1]): 100; Foxtail, Giant plant response rating (giant foxtail; [6]): 100; Plant response rating, Morningglory (morningglory; [7]): 60; Morningglory plant response rating (morningglory; [6]): 80; Plant response rating, Pigweed (pigweed; [7]): 100; Pigweed plant response rating (pigweed; [6]): 100; Plant response rating (0 to 100), Wheat (wheat, winter; 125 g ai/ha, postemergence): 10; Plant response rating, Wheat (wheat, winter; [8]): 0; Plant response rating, Wheat (wheat, winter; Postemergence, 62 g ai/ha): 5; Kochia plant response rating (kochia; [9]): 70; Plant response rating (0 to 100), Kochia (kochia; 125 g ai/ha, postemergence): 98; Plant response rating, Kochia (kochia; [8]): 80; Plant response rating, Kochia (kochia; Postemergence, 62 g ai/ha): 90; Plant response rating (0 to 100), Oat, Wild (wild oat; 125 g ai/ha, postemergence): 20; Plant response rating, Oat, Wild (wild oat; [8]): 5; Plant response rating, Oat, Wild (wild oat; Postemergence, 62 g ai/ha): 10; Chickweed plant response rating (chickweed; [9]): 30; Plant response rating (0 to 100), Chickweed (chickweed; 125 g ai/ha, postemergence): 85; Plant response rating, Chickweed (chickweed; [8]): 50; Plant response rating, Chickweed (chickweed; Postemergence, 62 g ai/ha): 75
FC(F)c1cccc(Oc2ncc(Br)cn2)c1-n1cc(C(F)(F)F)cn1 [Compound 163] | 100 | 0 | 70 | 100 | 100 | 100 | 100 | 10 | 60 | 0 | 0 | 0 | 5 | 90 | 90 | 100 | 0 | 5 | 20 | 40 | Plant response rating, Foxtail, Giant (giant foxtail; [1]): 100; Plant response rating, Wheat (wheat, winter; Postemergence, 62 g ai/ha): 0; Plant response rating, Kochia (kochia; Postemergence, 62 g ai/ha): 100; Plant response rating, Oat, Wild (wild oat; Postemergence, 62 g ai/ha): 10; Chickweed plant response rating (chickweed; [3]): 80; Plant response rating, Chickweed (chickweed; [4]): 95; Plant response rating, Chickweed (chickweed; Postemergence, 62 g ai/ha): 80
FC(F)(F)c1cnn(-c2c(Br)cccc2Oc2ncc(Cl)cn2)c1 [Compound 191] | 100 | 50 | 70 | 100 | 100 | 90 | 100 | 20 | 40 | 40 | 0 | 0 | 0 | 85 | 95 | 100 | 5 | 5 | 10 | 10 | Foxtail, Giant plant response rating (0 to 100 scale) (giant foxtail): 100; Plant response rating, Wheat (wheat, winter; Postemergence, 62 g ai/ha): 0; Plant response rating, Kochia (kochia; Postemergence, 62 g ai/ha): 98; Plant response rating, Oat, Wild (wild oat; Postemergence, 62 g ai/ha): 5; Chickweed plant response rating (chickweed; [3]): 80; Plant response rating, Chickweed (chickweed; [4]): 98; Plant response rating, Chickweed (chickweed; Postemergence, 62 g ai/ha): 80
